Reference: PMC8228849, “Characterization of the Highly Efficient Acid-Stable Xylanase and β-Xylosidase System from the Fungus Byssochlamys spectabilis ATHUM 8891 (Paecilomyces variotii ATHUM 8891)” (Journal of Fungi, 2021)

T1: PvXyd3A (Paecilomyces variotii, UniProt A0A443HSR8)
T1 construct: gene C8Q69DRAFT_305813; native secreted enzyme purified from culture supernatant (Brewer's Spent Grain); 78 kDa; pI between 3 and 4; GH3; once misprinted PvXyd11A
T1 sequence (A0A443HSR8 28-800): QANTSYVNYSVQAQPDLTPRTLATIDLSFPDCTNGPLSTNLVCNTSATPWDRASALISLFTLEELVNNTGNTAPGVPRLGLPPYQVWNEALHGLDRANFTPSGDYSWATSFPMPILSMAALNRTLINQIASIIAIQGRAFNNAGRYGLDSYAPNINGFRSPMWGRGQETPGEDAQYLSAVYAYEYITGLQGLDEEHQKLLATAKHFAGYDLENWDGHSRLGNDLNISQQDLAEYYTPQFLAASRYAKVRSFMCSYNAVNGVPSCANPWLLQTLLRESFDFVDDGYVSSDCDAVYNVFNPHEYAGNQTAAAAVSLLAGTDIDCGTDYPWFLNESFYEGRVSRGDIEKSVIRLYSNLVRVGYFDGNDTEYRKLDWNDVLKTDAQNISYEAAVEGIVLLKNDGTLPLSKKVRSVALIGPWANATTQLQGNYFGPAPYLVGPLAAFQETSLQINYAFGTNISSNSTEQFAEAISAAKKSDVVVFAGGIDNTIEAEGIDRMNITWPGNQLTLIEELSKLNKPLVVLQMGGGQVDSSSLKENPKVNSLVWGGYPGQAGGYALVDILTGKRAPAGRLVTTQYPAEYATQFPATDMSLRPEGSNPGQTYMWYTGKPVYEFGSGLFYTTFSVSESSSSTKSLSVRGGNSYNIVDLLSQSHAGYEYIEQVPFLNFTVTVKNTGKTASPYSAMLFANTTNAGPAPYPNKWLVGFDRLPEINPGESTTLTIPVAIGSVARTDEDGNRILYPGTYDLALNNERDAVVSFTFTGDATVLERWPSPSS

B1: PvXyd3A (Paecilomyces variotii) (protein)
chain: T1 sequence (A0A443HSR8 28-800)
notes: native secreted enzyme purified from culture supernatant (Brewer's Spent Grain); 78 kDa; pI between 3 and 4; GH3; once misprinted PvXyd11A

What was measured:
PvXyd3A = target: T1, PvXyd3A; experiment: pNP-X hydrolysis initial rates, Lineweaver-Burk; format: biochemical; settings: competitive; substrate pNP-X; xylose at 5, 20 and 50 mM; methods text misprints the enzyme as Xyn3A
purified protein = substrate: O=[N+]([O-])c1ccc(O[C@@H]2OC[C@@H](O)[C@H](O)[C@H]2O)cc1; experiment: purified protein; format: biochemical, Paecilomyces variotii; settings: standard assay pH 4 citrate-phosphate, 50 °C, 0.1-20 mM pNP-X, Table 4 prints 0.45 ± 0.06 mM

Row | Molecule | Ki (PvXyd3A) | Km (purified protein)
1 | OC1OC[C@@H](O)[C@H](O)[C@H]1O (some centres unmarked) [X1, xylose] | 10.2 mM | –
2 | B1 | – | 480 ± 60 µM
